Measurements published in patent US8187823B2, “Modulation of neuroglia-derived BDNF in the treatment and prevention of pain” (Université Laval, priority 2004, dated 2012).

What was measured:
[1] = system: cultured microglia; experiment: ELISA of BDNF protein in supernatant of cultured microglia; format: cell-based, rat; conditions: ATP stimulation; TNP-ATP 10 μM; supernatant 5 hours after treatment
Experimental: Microglial cultures. Rat primary cultured microglia were prepared under standard conditions as described^2,21. In brief, mixed glial culture was prepared from neonatal Wistar rats and maintained for 10-16 days in DMEM medium with 10% fetal bovine serum. Microglia were separated from the primary culture by gentle shaking of the flask and replated on plastic dishes. The cells were removed from the dish surface using a cell scraper and collected in 100 μl of PBS; subsequently, the cell density of microglia was measured using a cell counter and the volume of PBS adjusted to give a final density of 1000 cells/10 μl. This method produces microglial cultures of >95% purity. For ATP-stimulation, the purified microglia were incubated with ATP (50 μM) for 1 hour. […]

[2] = system: LI neurons; experiment: Eanion of LI neurons in spinal slices from PNI rats with bath-applied agents; format: cell-based, rat; conditions: TNP-ATP 1 μM bath-applied, slices from allodynic rats two weeks after PNI
Experimental: (§1) Peripheral nerve injury was induced by surgically implanting a polyethylene cuff (2 mm in length, inner diameter 0.7 mm) around the sciatic nerve of adult male Sprague-Dawley rats^3,17. For sham surgery, which was used as a control, animals had all surgical procedures exempt that the cuff was not implanted. The 50% withdrawal threshold, or 50% paw withdrawal threshold, to mechanical stimulation was assessed^3,18. […] In animals with peripheral nerve injury induced in this model, there was microglial activation in the spinal cord ipsilateral to the nerve cuff, as indicated by increased labeling for the microglial activation marker OX-42 (FIGS. 5B and 5C).
(§2) Slice preparation. Parasagittal slices (300-350 μm) of spinal cord were prepared from adult (>50 days old) male rats as previously described^31. Slices were continually superfused (2-3 ml min^−1) with artificial cerebrospinal fluid (ACSF) containing (in mM): 126 NaCl, 26 NaHCO3, 10 glucose, 2.5 KCl, 2 CaCl2, 2 MgCl2, 1.25 NaH2PO4 (bubbled with 95% O2/5% CO2, pH ˜7.4).
Recordings. For perforated-patch recordings, the pipette tip was filled with a solution containing (in mM): 130 potassium methyl sulphate (KMeSO4), 5 CsCl, 2 MgCl2, 11 BAPTA, 1 CaCl2, 4 ATP, 0.4 GTP, 10 HEPES (˜pH 7.4). […]

[3] = system: rats with peripheral nerve injury; conditions: literature (ref. 2), acting on P2X receptors in microglia; cited from earlier work
[4] = system: LI neurons; experiment: Eanion of LI neurons in spinal slices from naïve rats with bath-applied BDNF; format: cell-based, rat; conditions: BDNF 50 ng/ml, >90 min
Experimental: as §2
Recordings. For perforated-patch recordings, the pipette tip was filled with a solution containing (in mM): 130 potassium methyl sulphate (KMeSO4), 5 CsCl, 2 MgCl2, 11 BAPTA, 1 CaCl2, 4 ATP, 0.4 GTP, 10 HEPES (˜pH 7.4). The pipette was back-filled with this same solution supplemented with 25 μg ml^−1 gramicidin D [gramicidin stock was at 10 mg ml^−1 in dimethylsulphoxide (DMSO)]. Recordings in this mode were selected when access resistance was stable between 25-45 MΩ. For whole-cell voltage-clamp recordings, pipettes were filled with the above solution lacking gramicidin D. GABA was applied locally for 10-50 ms by pressure ejection through a micro-pipette. Data acquisition and analysis of PSCs were performed as previously described^19; membrane potential measurements were corrected as previously described^20. […] All measurements are given as means±SEM, except where indicated. […]

[5] = system: naïve rats; experiment: Paw withdrawal threshold (WD50) after intrathecal delivery to naïve rats; format: in vivo, rat; conditions: for paw withdrawal threshold (WD50): intrathecal delivery to naïve/intact rats
Experimental: as §1
Microglial cultures. Rat primary cultured microglia were prepared under standard conditions as described^2,21. In brief, mixed glial culture was prepared from neonatal Wistar rats and maintained for 10-16 days in DMEM medium with 10% fetal bovine serum. Microglia were separated from the primary culture by gentle shaking of the flask and replated on plastic dishes. The cells were removed from the dish surface using a cell scraper and collected in 100 μl of PBS; subsequently, the cell density of microglia was measured using a cell counter and the volume of PBS adjusted to give a final density of 1000 cells/10 μl. This method produces microglial cultures of >95% purity. For ATP-stimulation, the purified microglia were incubated with ATP (50 μM) for 1 hour.
Intrathecal injections and ELISA. At least three days before drug administration, rats were anaesthetized with sodium pentobarbital (65 mg kg^−1), and a lumbar spinal catheter (PE-10 polyethylene tube) was inserted into the intrathecal space^22. On recovery from surgery, lower-body paralysis was induced through intrathecal lidocaine (2%, 30 μl) injection to confirm proper catheter localization. […] At the doses used, none of the compounds produced motor disturbances or sedation, as assessed by grasping, righting and placing reflexes and behavioural observations^23. […]

Molecule | release of BDNF from microglia in culture [1] | Eanion of LI neurons [2] | nerve injury-induced tactile allodynia [3] | Eanion of LI neurons vs control untreated slices [4] | paw withdrawal threshold (WD50) [5] | paw withdrawal threshold (WD50) ([5]; listed as recombinant human BDNF) | time to significant decrease in WD50 ([5]; recombinant human BDNF 20 μg intrathecal, intact rats)
Nc1ncnc2c1ncn2[C@@H]1O[C@H](COP(=O)(O)OP(=O)(O)OP(=O)(O)O)[C@@H](O)[C@H]1O [ATP] | caused release of BDNF | – | – | – | – | – | –
TNP-ATP | blocked | −59.3±1.8 mV | reverse nerve injury-induced tactile allodynia | – | – | – | –
BDNF: brain-derived neurotrophic factor; recombinant human BDNF delivered intrathecally or bath-applied (protein, listed as Homo sapiens) MTILFLTMVISYFGCMKAAPMKEANIRGQGGLAYPGVRTHGTLESVNGPKAGSRGLTSLADTFEHVIEELLDEDQKVRPNEENNKDADLYTSRVMLSSQVPLEPPLLFLLEEYKNYLDAANMSMRVRRHSDPARRGELSVCDSISEWVTAADKKTAVDMSGGTVTVLEKVPVSKGQLKQYFYETKCNPMGYTKEGCRGIDKRHWNSQCRTTQSYVRALTMDSKKRIGWRFIRIDTSCVCTLTIKRGR | – | – | – | significantly less negative | decrease in paw withdrawal threshold | significant and transient decrease in the WD50 | ≤ 1 h
